Measured values: article PMC7180948, “New Insights into 4-Anilinoquinazolines as Inhibitors of Cardiac Troponin I–Interacting Kinase (TNNi3K)” (Molecules, 2020)
Values belong to the compound of their own block, whether it stands above or below them.

Columns and labels:
Assay in all cases: biochemical
EGFR(E746-A750del) = EGFR(E746-A750del) (Homo sapiens, UniProt P00533, DEL746-750); design: KINOMEscan competition binding panel (Eurofins DiscoverX), single concentration, % inhibition; conditions: read-out: 7 at 1 µM % inhibition
Sequence of EGFR(E746-A750del) (P00533 with tags, fused parts or gaps DEL746-750): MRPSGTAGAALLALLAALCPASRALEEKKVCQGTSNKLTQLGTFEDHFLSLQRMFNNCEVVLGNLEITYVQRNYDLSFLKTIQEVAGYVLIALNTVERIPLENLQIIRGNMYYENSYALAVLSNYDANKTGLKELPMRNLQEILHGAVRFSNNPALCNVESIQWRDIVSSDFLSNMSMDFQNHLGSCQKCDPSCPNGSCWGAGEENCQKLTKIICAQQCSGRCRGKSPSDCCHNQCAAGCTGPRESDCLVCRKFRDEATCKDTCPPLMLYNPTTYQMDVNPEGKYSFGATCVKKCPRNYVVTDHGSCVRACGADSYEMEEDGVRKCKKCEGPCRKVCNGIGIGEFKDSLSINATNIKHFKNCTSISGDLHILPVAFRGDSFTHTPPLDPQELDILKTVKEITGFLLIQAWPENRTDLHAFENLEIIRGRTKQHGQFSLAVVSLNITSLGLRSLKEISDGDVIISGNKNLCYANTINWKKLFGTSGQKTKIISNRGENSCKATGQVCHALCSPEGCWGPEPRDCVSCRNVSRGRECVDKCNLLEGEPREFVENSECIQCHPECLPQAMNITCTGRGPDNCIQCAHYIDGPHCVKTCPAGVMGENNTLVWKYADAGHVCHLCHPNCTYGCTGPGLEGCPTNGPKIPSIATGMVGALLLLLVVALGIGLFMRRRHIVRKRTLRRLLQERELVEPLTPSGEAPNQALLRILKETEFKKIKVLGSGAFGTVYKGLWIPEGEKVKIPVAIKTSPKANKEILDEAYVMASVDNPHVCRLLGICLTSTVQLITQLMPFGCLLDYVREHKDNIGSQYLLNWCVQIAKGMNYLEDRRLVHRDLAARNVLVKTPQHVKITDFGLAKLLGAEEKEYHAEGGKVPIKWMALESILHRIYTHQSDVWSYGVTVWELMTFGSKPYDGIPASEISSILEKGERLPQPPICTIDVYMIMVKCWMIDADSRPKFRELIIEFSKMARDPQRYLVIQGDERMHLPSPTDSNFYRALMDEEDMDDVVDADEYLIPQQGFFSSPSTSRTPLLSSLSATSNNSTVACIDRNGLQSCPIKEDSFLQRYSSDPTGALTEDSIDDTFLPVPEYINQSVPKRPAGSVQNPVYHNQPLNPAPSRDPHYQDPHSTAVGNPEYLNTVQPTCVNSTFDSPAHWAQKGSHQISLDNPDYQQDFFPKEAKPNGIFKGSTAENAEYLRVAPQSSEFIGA
In short: (§1)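 A single 1 µM concentration of each compound is screened across upwards of 400 human kinases using the KINOMEscan format.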

MAPKAPK2 = MAPKAPK2 (Homo sapiens, UniProt P49137); design: KINOMEscan competition binding panel (Eurofins DiscoverX), single concentration, % inhibition; conditions: read-out: 7 at 1 µM % inhibition
In short: as §1

EPHA2 = EPHA2 (Homo sapiens, UniProt P29317); design: KINOMEscan competition binding panel (Eurofins DiscoverX), single concentration, % inhibition; conditions: read-out: 7 at 1 µM % inhibition
In short: as §1

CSK = CSK (Homo sapiens, UniProt P41240); design: KINOMEscan competition binding panel (Eurofins DiscoverX), single concentration, % inhibition; conditions: read-out: 7 at 1 µM % inhibition
In short: as §1

YSK4 = molecular target: T1, YSK4 (Homo sapiens, UniProt Q56UN5); design: KINOMEscan competition binding panel (Eurofins DiscoverX), single concentration, % inhibition; conditions: read-out: 7 at 1 µM % inhibition
T1 construct: gene MAP3K19
In short: as §1

VPS34 = molecular target: T2, VPS34 (Homo sapiens, UniProt Q8NEB9); design: KINOMEscan competition binding panel (Eurofins DiscoverX), single concentration, % inhibition; conditions: read-out: 7 at 1 µM % inhibition
T2 construct: gene PIK3C3
In short: as §1

TIE1 = TIE1 (Homo sapiens, UniProt P35590); design: KINOMEscan competition binding panel (Eurofins DiscoverX), single concentration, % inhibition; conditions: read-out: 7 at 1 µM % inhibition
In short: as §1

PIK3CA(H1047Y) = PIK3CA(H1047Y) (Homo sapiens, UniProt P42336, H1047Y); design: KINOMEscan competition binding panel (Eurofins DiscoverX), single concentration, % inhibition; conditions: read-out: 7 at 1 µM % inhibition
Sequence of PIK3CA(H1047Y) (P42336 whole entry H1047Y): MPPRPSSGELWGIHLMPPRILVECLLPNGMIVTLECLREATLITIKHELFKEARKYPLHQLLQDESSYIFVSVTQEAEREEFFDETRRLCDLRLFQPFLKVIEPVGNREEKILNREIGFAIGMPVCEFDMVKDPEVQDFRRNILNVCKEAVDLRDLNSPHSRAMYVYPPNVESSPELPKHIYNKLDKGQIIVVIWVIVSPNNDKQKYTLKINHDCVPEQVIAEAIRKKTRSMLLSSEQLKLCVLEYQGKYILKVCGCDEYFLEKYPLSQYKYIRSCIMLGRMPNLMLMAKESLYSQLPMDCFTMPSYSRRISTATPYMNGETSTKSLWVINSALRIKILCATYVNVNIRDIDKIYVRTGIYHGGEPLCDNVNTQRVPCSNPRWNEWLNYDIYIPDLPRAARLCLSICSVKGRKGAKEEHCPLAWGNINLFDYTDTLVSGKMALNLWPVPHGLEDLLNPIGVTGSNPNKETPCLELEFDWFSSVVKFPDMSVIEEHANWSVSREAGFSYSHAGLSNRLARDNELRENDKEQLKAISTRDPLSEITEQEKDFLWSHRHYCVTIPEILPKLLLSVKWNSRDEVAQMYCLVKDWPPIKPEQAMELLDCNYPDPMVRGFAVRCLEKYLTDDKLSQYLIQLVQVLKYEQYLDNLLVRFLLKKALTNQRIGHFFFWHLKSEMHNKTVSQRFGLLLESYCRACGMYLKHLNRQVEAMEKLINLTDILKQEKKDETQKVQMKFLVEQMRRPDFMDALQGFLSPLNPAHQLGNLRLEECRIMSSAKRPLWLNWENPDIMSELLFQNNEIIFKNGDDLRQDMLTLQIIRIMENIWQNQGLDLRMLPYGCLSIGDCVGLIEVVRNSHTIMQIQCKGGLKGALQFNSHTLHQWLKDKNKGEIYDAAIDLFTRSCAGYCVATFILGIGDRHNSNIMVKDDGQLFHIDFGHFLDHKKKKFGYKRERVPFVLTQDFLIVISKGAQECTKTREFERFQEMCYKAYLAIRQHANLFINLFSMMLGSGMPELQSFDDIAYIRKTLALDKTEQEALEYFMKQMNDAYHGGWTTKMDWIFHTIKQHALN
In short: as §1

GRK7 = GRK7 (Homo sapiens, UniProt Q8WTQ7); design: KINOMEscan competition binding panel (Eurofins DiscoverX), single concentration, % inhibition; conditions: read-out: 7 at 1 µM % inhibition
In short: as §1

PKAC-alpha = molecular target: T3, PKAC-alpha (Homo sapiens, UniProt P17612); design: KINOMEscan competition binding panel (Eurofins DiscoverX), single concentration, percent inhibition; conditions: read-out: 15 at 1 µM % inhibition
T3 construct: gene PRKACA
Description: (§2) KinomeScan® Assay on 7 and 15 was performed as previously described by EuroFins DiscoverX [24]. GSK114 (7) and 15 were submitted for a KINOMEscan® assay to explore the selectivity profile across >400 human kinases at a compound concentration of 1 µM. […] GSK114 (7) is a narrow-spectrum TNNi3K inhibitor but has some potent off-targets including GAK which has been previously reported for this chemotype. […] If utilized together this set of compounds could be useful to investigate TNNi3K biology.

NIK = molecular target: T4, NIK (Homo sapiens, UniProt Q99558); design: KINOMEscan competition binding panel (Eurofins DiscoverX), single concentration, percent inhibition; conditions: read-out: 15 at 1 µM % inhibition
T4 construct: gene MAP3K14
Description: as §2

MET(Y1235D) = MET(Y1235D) (Homo sapiens, UniProt P08581, Y1235D); design: KINOMEscan competition binding panel (Eurofins DiscoverX), single concentration, percent inhibition; conditions: read-out: 15 at 1 µM % inhibition
Description: as §2

PRKX = PRKX (Homo sapiens, UniProt P51817); design: KINOMEscan competition binding panel (Eurofins DiscoverX), single concentration, percent inhibition; conditions: read-out: 15 at 1 µM % inhibition
Sequence of PRKX (P51817 whole entry): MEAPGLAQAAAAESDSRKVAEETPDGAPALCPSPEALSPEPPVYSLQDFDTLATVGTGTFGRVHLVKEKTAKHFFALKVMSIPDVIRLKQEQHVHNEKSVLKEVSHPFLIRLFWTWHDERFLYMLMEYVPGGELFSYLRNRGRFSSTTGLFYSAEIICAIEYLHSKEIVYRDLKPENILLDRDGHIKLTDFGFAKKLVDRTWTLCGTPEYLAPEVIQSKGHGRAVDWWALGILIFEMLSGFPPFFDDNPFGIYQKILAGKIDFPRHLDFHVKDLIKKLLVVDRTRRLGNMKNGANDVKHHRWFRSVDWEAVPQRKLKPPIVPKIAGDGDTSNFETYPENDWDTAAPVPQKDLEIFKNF
Description: as §2

RIOK1 = RIOK1 (Homo sapiens, UniProt Q9BRS2); design: KINOMEscan competition binding panel (Eurofins DiscoverX), single concentration, percent inhibition; conditions: read-out: 15 at 1 µM % inhibition
Description: as §2

TSSK3 = TSSK3 (Homo sapiens, UniProt Q96PN8); design: KINOMEscan competition binding panel (Eurofins DiscoverX), single concentration, percent inhibition; conditions: read-out: 15 at 1 µM % inhibition
Sequence of TSSK3 (Q96PN8 whole entry): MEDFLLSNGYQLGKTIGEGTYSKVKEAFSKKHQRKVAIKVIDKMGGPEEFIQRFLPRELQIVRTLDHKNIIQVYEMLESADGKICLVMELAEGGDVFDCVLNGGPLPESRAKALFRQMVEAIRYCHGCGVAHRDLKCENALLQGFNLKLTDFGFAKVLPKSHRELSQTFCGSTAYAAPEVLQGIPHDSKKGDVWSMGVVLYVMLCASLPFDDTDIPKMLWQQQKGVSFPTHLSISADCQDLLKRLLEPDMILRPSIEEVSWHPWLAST
Description: as §2

PIK4CB = molecular target: T5, PIK4CB (Homo sapiens, UniProt Q9UBF8); design: KINOMEscan competition binding panel (Eurofins DiscoverX), single concentration, percent inhibition; conditions: read-out: 15 at 1 µM % inhibition
T5 construct: gene PI4KB
Description: as §2

SRPK1 = SRPK1 (Homo sapiens, UniProt Q96SB4); design: KINOMEscan competition binding panel (Eurofins DiscoverX), single concentration, percent inhibition; conditions: read-out: 15 at 1 µM % inhibition
Sequence of SRPK1 (Q96SB4 whole entry): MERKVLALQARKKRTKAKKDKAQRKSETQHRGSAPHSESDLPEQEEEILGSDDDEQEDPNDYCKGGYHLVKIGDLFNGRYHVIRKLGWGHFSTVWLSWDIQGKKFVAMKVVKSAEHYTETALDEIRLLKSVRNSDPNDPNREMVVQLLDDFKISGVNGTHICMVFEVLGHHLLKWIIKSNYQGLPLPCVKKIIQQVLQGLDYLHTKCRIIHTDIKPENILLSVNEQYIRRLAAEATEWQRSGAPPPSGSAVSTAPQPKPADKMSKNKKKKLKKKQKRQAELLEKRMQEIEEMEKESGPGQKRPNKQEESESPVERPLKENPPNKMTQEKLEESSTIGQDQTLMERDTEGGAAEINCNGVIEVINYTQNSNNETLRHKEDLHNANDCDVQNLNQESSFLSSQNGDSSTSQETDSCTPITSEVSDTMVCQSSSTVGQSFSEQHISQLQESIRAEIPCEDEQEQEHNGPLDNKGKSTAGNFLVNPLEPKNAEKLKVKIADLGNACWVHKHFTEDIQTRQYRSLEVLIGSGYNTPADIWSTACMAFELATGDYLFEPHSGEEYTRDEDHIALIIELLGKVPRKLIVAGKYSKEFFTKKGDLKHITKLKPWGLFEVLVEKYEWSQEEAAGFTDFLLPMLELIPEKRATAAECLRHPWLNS
Description: as §2

BMPR2 = BMPR2 (Homo sapiens, UniProt Q13873); design: KINOMEscan competition binding panel (Eurofins DiscoverX), single concentration, percent inhibition; conditions: read-out: 15 at 1 µM % inhibition
Description: as §2

ACVR1B = ACVR1B (Homo sapiens, UniProt P36896); design: KINOMEscan competition binding panel (Eurofins DiscoverX), single concentration, percent inhibition; conditions: read-out: 15 at 1 µM % inhibition
Description: as §2

[1] = molecular target: T6, RPS6KA4(Kin.Dom.1-N-terminal) (Homo sapiens, UniProt O75676); design: KINOMEscan competition binding panel (Eurofins DiscoverX), single concentration, percent inhibition; conditions: read-out: 15 at 1 µM % inhibition
T6 construct: Kin.Dom.1-N-terminal
Description: as §2

TRKA = molecular target: T7, TRKA (Homo sapiens, UniProt P04629); design: KINOMEscan competition binding panel (Eurofins DiscoverX), single concentration, percent inhibition; conditions: read-out: 15 at 1 µM % inhibition
T7 construct: gene NTRK1
T7 sequence (P04629 whole entry): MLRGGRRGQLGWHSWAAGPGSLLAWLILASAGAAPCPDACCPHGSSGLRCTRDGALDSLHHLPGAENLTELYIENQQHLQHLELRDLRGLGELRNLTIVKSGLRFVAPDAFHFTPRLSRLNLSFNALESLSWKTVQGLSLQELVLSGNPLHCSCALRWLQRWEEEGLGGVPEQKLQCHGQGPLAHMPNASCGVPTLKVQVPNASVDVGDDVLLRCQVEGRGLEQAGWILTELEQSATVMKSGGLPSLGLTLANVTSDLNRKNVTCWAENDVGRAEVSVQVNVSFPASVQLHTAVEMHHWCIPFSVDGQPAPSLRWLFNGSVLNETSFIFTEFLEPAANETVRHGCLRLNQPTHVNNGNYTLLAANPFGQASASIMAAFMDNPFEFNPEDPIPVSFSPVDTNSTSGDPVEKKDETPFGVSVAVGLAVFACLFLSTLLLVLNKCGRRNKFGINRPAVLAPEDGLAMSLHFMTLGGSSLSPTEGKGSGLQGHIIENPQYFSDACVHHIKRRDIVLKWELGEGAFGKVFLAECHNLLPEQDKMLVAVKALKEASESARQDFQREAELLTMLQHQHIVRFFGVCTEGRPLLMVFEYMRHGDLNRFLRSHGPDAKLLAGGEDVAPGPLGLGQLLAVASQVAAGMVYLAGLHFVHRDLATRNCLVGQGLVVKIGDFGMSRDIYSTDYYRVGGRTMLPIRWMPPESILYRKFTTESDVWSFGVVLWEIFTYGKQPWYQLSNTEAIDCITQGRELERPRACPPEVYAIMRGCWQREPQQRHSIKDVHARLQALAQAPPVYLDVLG
Description: as §2

INSR = INSR (Homo sapiens, UniProt P06213); design: KINOMEscan competition binding panel (Eurofins DiscoverX), single concentration, percent inhibition; conditions: read-out: 15 at 1 µM % inhibition
Description: as §2

EPHA3 = EPHA3 (Homo sapiens, UniProt P29320); design: KINOMEscan competition binding panel (Eurofins DiscoverX), single concentration, percent inhibition; conditions: read-out: 15 at 1 µM % inhibition
Description: as §2

SRPK2 = SRPK2 (Homo sapiens, UniProt P78362); design: KINOMEscan competition binding panel (Eurofins DiscoverX), single concentration, percent inhibition; conditions: read-out: 15 at 1 µM % inhibition
Sequence of SRPK2 (P78362 whole entry): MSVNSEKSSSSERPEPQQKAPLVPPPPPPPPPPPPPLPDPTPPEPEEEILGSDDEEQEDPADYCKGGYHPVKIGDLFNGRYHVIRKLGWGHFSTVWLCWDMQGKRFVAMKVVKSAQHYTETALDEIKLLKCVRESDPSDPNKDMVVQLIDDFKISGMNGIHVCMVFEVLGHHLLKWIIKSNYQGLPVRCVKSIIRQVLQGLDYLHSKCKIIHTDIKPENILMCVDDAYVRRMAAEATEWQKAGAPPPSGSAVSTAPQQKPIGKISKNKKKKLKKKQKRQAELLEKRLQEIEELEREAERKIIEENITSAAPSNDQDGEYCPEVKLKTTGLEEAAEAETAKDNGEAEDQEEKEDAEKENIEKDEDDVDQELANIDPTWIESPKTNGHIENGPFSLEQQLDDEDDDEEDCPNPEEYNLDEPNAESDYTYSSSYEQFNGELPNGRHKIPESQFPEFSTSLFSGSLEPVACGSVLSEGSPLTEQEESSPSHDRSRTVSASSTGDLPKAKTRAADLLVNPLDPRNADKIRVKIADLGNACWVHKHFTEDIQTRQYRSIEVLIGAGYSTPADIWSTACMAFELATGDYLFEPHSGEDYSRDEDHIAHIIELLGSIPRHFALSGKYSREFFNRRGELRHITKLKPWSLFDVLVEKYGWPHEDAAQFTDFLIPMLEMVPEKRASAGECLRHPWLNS
Description: as §2

SMILES: CNS(=O)(=O)c1ccc(N(C)C)c(Nc2ncnc3cc(OC)c(OC)cc23)c1 [compound 7, 3-((6,7-dimethoxyquinazolin-4-yl)amino)-4-(dimethylamino)-N-methylbenzenesulfonamide]
inhibition at 1 µM (EGFR(E746-A750del)): 25%
inhibition at 1 µM (MAPKAPK2): 0%
inhibition at 1 µM (EPHA2): 0%
inhibition at 1 µM (CSK): 0%
inhibition at 1 µM (YSK4): 72%
inhibition at 1 µM (VPS34): 18%
inhibition at 1 µM (TIE1): 0%
inhibition at 1 µM (PIK3CA(H1047Y)): 17%
inhibition at 1 µM (GRK7): 23%

inhibition at 1 µM (PKAC-alpha): 0%
inhibition at 1 µM (NIK): 12%
inhibition at 1 µM (MET(Y1235D)): 0%
inhibition at 1 µM (PRKX): 0%
inhibition at 1 µM (RIOK1): 0%
inhibition at 1 µM (TSSK3): 28%
inhibition at 1 µM (PIK4CB): 12%
inhibition at 1 µM (SRPK1): 0%
inhibition at 1 µM (BMPR2): 21%
inhibition at 1 µM (ACVR1B): 0%
inhibition at 1 µM [1]: 3%
inhibition at 1 µM (TRKA): 37%
inhibition at 1 µM (INSR): 11%
inhibition at 1 µM (EPHA3): 2%
inhibition at 1 µM (SRPK2): 16%
SMILES: CNS(=O)(=O)c1ccc(N(C)C)c(Nc2nc(C)nc3cc(OC)c(OC)cc23)c1 [compound 15, 3-((6,7-dimethoxy-2-methylquinazolin-4-yl)amino)-4-(dimethylamino)-N-methylbenzenesulfonamide]
